Measured values taken from patent US10280183B2, “Therapeutic agent for treating tumors” (THE RESEARCH FOUNDATION FOR THE STATE UNIVERSITY OF NEW YORK, priority 2014, dated 2019).
Read-outs that look alike come from different tables or passages of the source.

Tests used:
[1] = test system: L1210FR murine lymphocytic leukemia cell line (BR+); assay: In vitro cytotoxicity, standard MTT assay, L1210FR cells; format: cell-based
Experimental: (§1) Cell Culture. All cell lines were obtained from ATCC unless otherwise noted. Cells were cultured in RPMI-1640 cell culture medium (Gibco) or DMEM (Gibco), both supplemented with 5% (v/v) heat-inactivated fetal bovine serum (FBS), 5% (v/v) NuSerum, and 1% (v/v) penicillin and streptomycin (PenStrep) at 37° C. in a humidified atmosphere with 5% CO2. MX-1 and ID8 (obtained from University of Kansas Medical Center) cells were cultured as monolayers on 100 mm tissue culture dishes in supplemented RPMI-1640. L1210 and L1210FR (a gift from Dr. Gregory Russell-Jones, Access Pharmaceuticals Pty Ltd., Australia) were grown as a suspension in supplemented RPMI-1640, and WI-38 as a monolayer in supplemented DMEM. Cells were harvested, collected by centrifugation at 850 rpm for 5 min, and resuspended in fresh culture medium. Cell cultures were routinely divided by treatment with trypsin (TrypLE, Gibco) as needed every 2-4 days and collected by centrifugation at 850 rpm for 5 min, and resuspended in fresh cell culture medium, containing varying cell densities for subsequent biological experiments and analysis.
(§2) In Vitro Cytotoxicity Assays. […] Cells were harvested, collected, and resuspended in 100 μL cell culture medium at concentrations ranging from 0.5-1.5×10^4 cells per well in a 96-well plate. For adhesive cell types, cells were allowed to descend to the bottom of the wells overnight, and fresh medium was added to each well upon removal of the old medium.
(§3) For the MTT assay (Table 1 and the Assay 1 in Table 2) of paclitaxel, taxoid 3 and conjugates 1 and 15, cells were resuspended in 200 μL medium with 8,000 to 10,000 cells per well of a 96-well plate and incubated at 37° C. for 24 h before drug treatment. In DMSO stock solutions, each drug or conjugate was diluted to a series of concentrations in cell culture medium to prepare test solutions. After removing the old medium, these test solutions were added to the wells in the 96-well plate to give the final concentrations ranging from 0.5 to 5,000 nM (100 μL), and the cells were subsequently cultured at 37° C. for 48 h (Table 1) or 72 h (Table 2, Assay 1). For the leukemia cell lines, L1210 and L1210FR, cells were harvested, collected, and resuspended in the test solutions ranging from 0.5 to 5,000 nM (100 μL) at 0.5 to 0.8 ×10^4 cells per well in a 96-well plate and subsequently incubated at 37° C. for 48 h (Table 1) or 72 h (Table 2, Assay 1).
(§4) In the Assay 2 (Table 2), cells were incubated with 1 or 15 at 37° C. for 24 h, and the drug medium was removed. Then, treated cells were thoroughly washed with PBS, and GSH-OEt (6 equiv. to conjugate) in cell culture medium (200 μL) was added to the wells. These cells were incubated at 37° C. for an additional 48 h, i.e., the total incubation time was 72 h.
(§5) In the Assay 3 (Table 2), cells were incubated with 1 or 15 at 37° C. for 24 h, and GSH-OEt (6 equivalents) in cell culture medium (100 μL) was directly added to the wells. These cells were incubated at 37° C. for an additional 48 h, i.e. the total incubation time was also 72 h.
(§6) For all experiments, after removing the test medium, fresh solution of MTT in PBS (40 μL of 0.5 mg MTT/mL) was added to the wells, and the cells were incubated at 37° C. for 3 h. The MTT solution was then removed, and the resulting insoluble violet formazan crystals were dissolved in 0.1 N HCl in isopropanol with 10% Triton X-100 (40 μL) to give a violet solution. The spectrophotometric absorbance measurement of each well in the 96-well plate was run at 570 nm using a Labsystems Multiskan Ascent microplate reader. The IC50 values and their standard errors were calculated from the viability-concentration curve using Four Parameter Logistic Model of Sigmaplot. The concentration of DMSO per well was ≤1% in all cases. Each experiment was run in triplicate.

[2] = test system: WI38 human lung fibroblast cell line (BR−); assay: In vitro cytotoxicity, standard MTT assay, WI38 cells; format: cell-based; conditions: 24 hour incubation; read-out: IC50, WI38 (normal lung)
[3] = test system: ID8 murine ovarian carcinoma cell line (BR+); assay: In vitro cytotoxicity, standard MTT assay, ID8 cells; format: cell-based
Experimental: as §1, §2
as §3, with “After removing the old medium, these test solutions were added to the wells in the 96-well plate to give the final concentrations ranging from 0.5 to 5,000 nM (100 μL), and the cells were subsequently cultured at 37° C. for 48 h (Table 1) or 72 h (Table 2, Assay 1).” left out
as §6

[4] = test system: L1210FR murine lymphocytic leukemia cell line (BR+); assay: In vitro cytotoxicity, standard MTT assay, L1210FR cells; format: cell-based; conditions: 24 hour incubation; read-out: IC50, L1210 FR (leuk.)
[5] = test system: L1210 murine lymphocytic leukemia cell line (BR−); assay: In vitro cytotoxicity, standard MTT assay, L1210 cells; format: cell-based
Experimental: as §1, §2, §3, §6

[6] = test system: MCF-7 (breast); assay: In vitro cytotoxicity, standard MTT assay, MCF-7 cells; format: cell-based; conditions: 72 h drug incubation
Experimental: as §2
For the MTT assay (Table 1 and the Assay 1 in Table 2) of paclitaxel, taxoid 3 and conjugates 1 and 15, cells were resuspended in 200 μL medium with 8,000 to 10,000 cells per well of a 96-well plate and incubated at 37° C. for 24 h before drug treatment. In DMSO stock solutions, each drug or conjugate was diluted to a series of concentrations in cell culture medium to prepare test solutions. […]
For all experiments, after removing the test medium, fresh solution of MTT in PBS (40 μL of 0.5 mg MTT/mL) was added to the wells, and the cells were incubated at 37° C. for 3 h. […] The spectrophotometric absorbance measurement of each well in the 96-well plate was run at 570 nm using a Labsystems Multiskan Ascent microplate reader. The IC50 values and their standard errors were calculated from the viability-concentration curve using Four Parameter Logistic Model of Sigmaplot. […]

[7] = test system: WI38 human lung fibroblast cell line (BR−); assay: In vitro cytotoxicity, standard MTT assay, WI38 cells; format: cell-based; conditions: 72 h drug incubation; read-out: IC50, WI38 (normal lung)
Experimental: as §1, §2, §3, §4, §5, §6

[8] = test system: MX-1 human breast carcinoma cell line (BR+); assay: In vitro cytotoxicity, standard MTT assay, MX-1 cells; format: cell-based
Experimental: as §1, §2, §3, §4, §5, §6

[9] = test system: BR+ cancer cell lines (L1210FR, MX-1, ID8); assay: MTT cytotoxicity summarised over BR+ cancer cell lines; format: cell-based
Experimental: as §2, §3, §4, §5, §6
Thus, the Assay 1 results provide the potency of conjugates in the same manner as that for the first assay summarized in Table 1, but for longer incubation time (48 h vs. 72 h). […] Accordingly, this assay may mimic the corresponding in vivo assay conditions, wherein non-internalized conjugates would be removed from the tumor, redistributed and eventually excreted. […] Thus, in principle, the results (IC50 values) in this assay should be very close to those for the control using taxoid 3 (entry 2).

[10] = In vitro cytotoxicity, standard MTT assay, WI38 cells; format: cell-based, human; conditions: human
Experimental: as §1, §2, §3, §4, §5, §6

`CC[C@@]1(OC(=O)Cc2ccccc2SSC(C)CCC(=O)NCCOCCOCCOCCn2cc(CNc3nc(NCCNC(=O)CCC(C)SSc4ccccc4CC(=O)O[C@@H](C(=O)O[C@H]4C[C@@]5(O)[C@@H](OC(=O)c6ccccc6)[C@@H]6[C@]7(OC(C)=O)CO[C@@H]7C[C@H](O)[C@@]6(C)C(=O)[C@H](OC(=O)C6CC6)C(=C4C)C5(C)C)[C@H](C=C(C)C)NC(=O)OC(C)(C)C)nc(NCCOCCOCCOCCNC(=O)CCCC[C@@H]4SC[C@@H]5NC(=O)N[C@@H]54)n3)nn2)C(=O)OCc2c1cc1n(c2=O)Cc2cc3ccccc3nc2-1` (stereo partly shown) [Compound 116] showed an IC50 ([1]; 72 h drug incubation, read-out: IC50, L1210FR (leuk.)) of 39.1 nM, an IC50 [2] of 705 nM and an IC50 ([3]; 24 hour incubation, read-out: IC50, ID8 (ovarian)) of 5.66 nM. It also gave an IC50 ([3]; 72 h drug incubation, read-out: IC50, ID8 (ovarian)) of 23.4 nM, an IC50 [4] of 7.4 nM and an IC50 ([5]; 72 h drug incubation, read-out: IC50, L1210 (leuk.)) of 690 nM. It also gave an IC50 [6] of 19 nM, an IC50 [7] of 742 nM and an IC50 ([8]; 24 hour incubation, read-out: IC50, MX-1 (breast)) of 9.8 nM. The IC50 ([8]; 72 h drug incubation, read-out: IC50, MX-1 (breast)) was 51.7 nM.

For `CC(=O)O[C@@]12CO[C@@H]1C[C@H](O)[C@@]1(C)C(=O)[C@H](OC(=O)C3CC3)C3=C(C)[C@@H](OC(=O)[C@H](OC(=O)Cc4ccccc4SSC(C)C(=O)NCCNc4nc(NCCOCCOCCOCCNC(=O)CCCC[C@@H]5SC[C@@H]6NC(=O)N[C@@H]65)nc(NCc5cn(CCOCCOCCOCCF)nn5)n4)[C@H](C=C(C)C)NC(=O)OC(C)(C)C)C[C@@](O)([C@@H](OC(=O)c4ccccc4)[C@H]21)C3(C)C` (stereo partly shown) [Conjugate 1], the IC50 ([1]; Mus musculus, 48 h, read-out: Cytotoxicity IC50, L1210FR) was 14.7 ± 4 nM, the IC50 ([1]; Mus musculus, 72 h, read-out: Cytotoxicity IC50, L1210FR, Assay 1) was 10.2 ± 3 nM and the IC50 ([1]; Mus musculus, read-out: Cytotoxicity IC50, L1210FR, Assay 2) was 6.6 ± 3.96 nM. It also gave an IC50 ([1]; Mus musculus, read-out: Cytotoxicity IC50, L1210FR, Assay 3) of 2.79 ± 1.43 nM, an IC50 ([3]; Mus musculus, Ovarian carcinoma cell, 48 h, read-out: Cytotoxicity IC50, ID8) of 6.62 ± 0.86 nM and an IC50 ([5]; Mus musculus, L1210, 48 h, read-out: Cytotoxicity IC50, L1210) of 593 nM. The IC50 ([9]; 24 h, PBS wash, GSH-OEt, additional 48 h, range over conjugates 1 and 15, read-out: IC50 range against BR+ cancer cells (MX-1, L1210FR), Assay 2) was 3.85 to 6.6 nM, the IC50 ([9]; 48 h, read-out: Cytotoxicity IC50, range over L1210FR, MX-1 and ID8) was 6 to 21 nM and the “Cancer cell selectivity (BR-specificity), BR+ cancer cells vs BR− WI38 cells” value ([9]; Assay 2) was “two-orders of magnitude difference”. The IC50 ([9]; GSH-OEt added after 24 h without PBS washing, additional 48 h, range over conjugates 1 and 15, read-out: IC50 range against MX-1 and L1210FR, third assay (Assay 3)) was 2.4 to 2.92 nM, the IC50 at 72 h ([10]; 24 h incubation, PBS wash, then GSH-OEt (6 equiv.) and additional 48 h, read-out: Cytotoxicity IC50, WI38, Assay 2) was 615 ± 97 nM and the IC50 at 72 h ([10]; 24 h incubation, then GSH-OEt (6 equiv.) added without washing, additional 48 h, read-out: Cytotoxicity IC50, WI38, Assay 3) was 12.9 ± 4.3 nM. The IC50 at 72 h ([10]; 72 h incubation, no GSH-OEt, read-out: Cytotoxicity IC50, WI38, Assay 1) was 682 ± 110 nM, the IC50 at 48 h ([10]; incubation at 37° C. for 48 h) was 709 nM and the IC50 ([8]; Homo sapiens, Breast carcinoma cell, 48 h, read-out: Cytotoxicity IC50, MX-1) was 21.2 ± 4.6 nM. The IC50 ([8]; Homo sapiens, Breast carcinoma cell, 72 h, read-out: Cytotoxicity IC50, MX-1, Assay 1) was 6.27 ± 2.06 nM, the IC50 ([8]; Homo sapiens, Breast carcinoma cell, read-out: Cytotoxicity IC50, MX-1, Assay 2) was 4.79 ± 0.12 nM and the IC50 ([8]; Homo sapiens, Breast carcinoma cell, read-out: Cytotoxicity IC50, MX-1, Assay 3) was 2.56 ± 0.15 nM.
